Data as given in patent US20170157143A1, “NORPREGNANE DERIVATIVES FOR THE RISK REDUCTION OF BREAST CANCER” (Helix Twelve Pharmaceuticals Corporation, Inc., priority 2015, published 2017).

Key:
breast cancer = details: DCIS patients; cited from earlier work
breast carcinoma = experiment: HLX-801 prophylactic therapy against breast cancer in at-risk subject groups compared to tamoxifen; assay type: in vivo, human
Procedure: Table 1: Exemplary effect of HLX-801 prophylactic therapy against breast cancer cells in at-risk subject groups compared to Tamoxifen (“TAM”) 1 mg.

[1] = Side effect profile of HLX-801; details: in vivo
From the text: The compounds are associated with the absence of the side effects that currently limit the adoption of the currently available tamoxifen and aromatase inhibition approaches by at risk individuals.

For CC/C(=C(\c1ccccc1)c1ccc(OCCN(C)C)cc1)c1ccccc1 [TAM, Tamoxifen, reference compound], which “reduction of the risk to progression to breast cancer” value (breast cancer) is on record?
The value was 30%.

What about the “No. of subjects developing breast carcinoma” value (breast carcinoma; TAM 1 mg, patients group 7/17) of the same molecule?
Its value is 12.

What about the “No. of subjects developing breast carcinoma” value (breast carcinoma; TAM 1 mg, patients group 7/21) of the same molecule?
Its value is 11.

And the “No. of subjects developing breast carcinoma” value (breast carcinoma; TAM 1 mg, patients group 7/24 (# of cohorts/# of subjects per cohort))?
The value was 12.

Which “bone loss (long-term risk of fractures)” value [1] does the source give for CCN(CC)Cc1ccc(OCC[C@H]2CCC3C4[C@H](C)Cc5cc(O)ccc5[C@H]4CC[C@@]32C)c(OC)c1 (stereo partly drawn) [HLX-801, (7α)-21-[4-[(diethylamino)methyl]-2-methoxyphenoxy]-7-methyl-19-norpregna-1,3,5(10)-trien-3-ol 2-hydroxy-1,2,3-propanetricarboxylate] here?
The value was “no evidence of bone loss”.

What about the muscle aches [1] of the same molecule?
Its muscle aches is “no reports of muscle aches”.

And the “uterine thickening (indicator of risk for treatment-induced uterine cancer)” value [1]?
The value was “no evidence of uterine thickening”.

And the “venous thrombembolism (indicator of risk for stroke)” value [1]?
The value was “no evidence of venous thrombembolism”.

What about the “No. of subjects developing breast carcinoma” value (breast carcinoma; HLX-801 1 mg, patients group 7/17) of the same molecule?
Its value is 3.

And the “No. of subjects developing breast carcinoma” value (breast carcinoma; HLX-801 1 mg, patients group 7/21)?
The value was 2.

What about the “No. of subjects developing breast carcinoma” value (breast carcinoma; HLX-801 1 mg, patients group 7/24) of the same molecule?
The value was 3.

What about the “No. of subjects developing breast carcinoma” value (breast carcinoma; HLX-801 5 mg, patients group 7/17) of the same molecule?
Its value is 1.

And the “No. of subjects developing breast carcinoma” value (breast carcinoma; HLX-801 5 mg, patients group 7/21)?
Its value is 2.

And the “No. of subjects developing breast carcinoma” value (breast carcinoma; HLX-801 5 mg, patients group 7/24)?
The value was 2.

And the “No. of subjects developing breast carcinoma” value (breast carcinoma; HLX-801 10 mg, patients group 7/17)?
The value was 1.

And the “No. of subjects developing breast carcinoma” value (breast carcinoma; HLX-801 10 mg, patients group 7/21)?
The value was 1.

What about the “No. of subjects developing breast carcinoma” value (breast carcinoma; HLX-801 10 mg, patients group 7/24) of the same molecule?
Its value is 1.

What about the “No. of subjects developing breast carcinoma” value (breast carcinoma; HLX-801 20 mg, patients group 7/17) of the same molecule?
The value was 1.

What about the “No. of subjects developing breast carcinoma” value (breast carcinoma; HLX-801 20 mg, patients group 7/21) of the same molecule?
Its value is 1.

And the “No. of subjects developing breast carcinoma” value (breast carcinoma; HLX-801 20 mg, patients group 7/24)?
Its value is 1.

What about the “No. of subjects developing breast carcinoma” value (breast carcinoma; HLX-801 40 mg, patients group 7/17) of the same molecule?
The value was 1.

And the “No. of subjects developing breast carcinoma” value (breast carcinoma; HLX-801 40 mg, patients group 7/21)?
Its value is 1.

And the “No. of subjects developing breast carcinoma” value (breast carcinoma; HLX-801 40 mg, patients group 7/24)?
Its value is 1.

And the “No. of subjects developing breast carcinoma” value (breast carcinoma; HLX-801 80 mg, patients group 7/17)?
Its value is 1.

And the “No. of subjects developing breast carcinoma” value (breast carcinoma; HLX-801 80 mg, patients group 7/21)?
The value was 1.

What about the “No. of subjects developing breast carcinoma” value (breast carcinoma; HLX-801 80 mg, patients group 7/24) of the same molecule?
The value was 1.
